Data taken from ChEMBL document CHEMBL6096702, “Discovery of a Novel p38α-MK2 Complex Inhibitor as a Potential Choice for Autoimmune Diseases” (J Med Chem, 2025).
Values after ≈ are worked out from the molar mass of the structure shown. Active and inactive are the calls of the source. The calls are words filed in the database; no cut-off is given here.

Tests used:
[1] = Volume of distribution at steady state in male Beagle dog at 1 mg/kg, iv measured after 24 hrs by LC-MS/MS analysis; format: ADME, organism-based, Canis lupus familiaris; details: in vivo, read-out: Vdss
Rattus norvegicus [2] = experiment: Antiarthritic activity in Mycobacterium tuberculosis H37R-induced female Lewis rat model of arthritis assessed as reduction in paw inflammation at 0.3 to 1 mg/kg, po administered twice daily for 15 days starting from day 13 after adjuvant administration by micro-CT analysis; format: functional, organism-based; details: dose 0.3-1 mg/kg, time 15.0 day
[3] = Cmax in female Lewis rat at 3 mg/kg, po measured after 24 hrs by LC-MS/MS analysis; format: ADME, organism-based; details: in vivo
[4] = AUClast in male Sprague-Dawley rat at 2 mg/kg, po measured after 24 hrs by LC-MS/MS analysis; format: ADME, organism-based; details: in vivo
Rattus norvegicus [5] = experiment: Antiarthritic activity in Mycobacterium tuberculosis H37R-induced female Lewis rat model of arthritis at 0.3 mg/kg, po administered twice daily for 15 days starting from day 13 after adjuvant administration; format: functional, organism-based; details: time 15.0 day
[6] = Solubility of compound in PBS at pH 7.4 measured after 4 to 24 hrs by LC-MS analysis; format: physicochemical; details: time 4-24 hrs
[7] = Inhibition of N-terminal GST-tagged wildtype human P38alpha (4 to 152 residues) extracted from Escherichia coli/GST-tagged PRAK (unknown origin) assessed as reduction in HSP27 phosphorylation incubated for 2 hrs in presence of ATP and HSP27-FITC peptide by fluorescence polarization based IMAP assay
[8] = molecular target: MAP kinase-activated protein kinase 2 (Homo sapiens) (UniProt P49137); experiment: Inhibition of LPS-induced MK2 phosphorylation in differentiated human THP-1 macrophage cells at 10 to 10000 nM preincubated with compound for 60 mins followed by LPS addition and measured after 30 mins by Western blot analysis; format: cell-based; details: dose 10-10000 nM, time 90.0 min
[9] = Half-life in male Beagle dog at 1 mg/kg, iv measured after 24 hrs by LC-MS/MS analysis; format: ADME, organism-based, Canis lupus familiaris; details: in vivo
PBMC [10] = experiment: Inhibition of LPS-induced IL-6 production in human PBMC cells at 0.01 to 10000 nM preincubated with compound for 1 hrs followed by LPS addition and measured after 4 hrs; format: functional, cell-based; details: dose 0.01-10000 nM, time 5.0 hrs
[11] = Inhibition of N-terminal GST-tagged wildtype human P38alpha (4 to 152 residues) extracted from Escherichia coli/GST-tagged MK2 (unknown origin) assessed as reduction in HSP27 phosphorylation incubated for 2 hrs in presence of ATP and HSP27-FITC peptide by fluorescence polarization based IMAP assay
Cytochrome P450 3A4 = Cytochrome P450 3A4 (Homo sapiens, UniProt P08684); experiment: Inhibition of CYP3A4 in human liver microsomes using midazolam as substrate in presence of NADP by LC-MS/MS analysis; format: ADME, Microsome
[12] = Oral bioavailability in male Sprague-Dawley rat at 2 mg/kg measured after 24 hrs by LC-MS/MS analysis; format: ADME, organism-based; details: in vivo
[13] = Cmax in male Sprague-Dawley rat at 2 mg/kg, po measured after 24 hrs by LC-MS/MS analysis; format: ADME, organism-based; details: in vivo
[14] = Inhibition of HSP27 phosphorylation in human THP-1 cells at 0.1 to 1000 nM preincubated with compounds followed by LPS addition for 30 mins; format: cell-based
Rattus norvegicus [15] = experiment: Antiarthritic activity in Mycobacterium tuberculosis H37R-induced female Lewis rat model of arthritis at 1 mg/kg, po administered twice daily for 15 days starting from day 13 after adjuvant administration; format: functional, organism-based; details: time 15.0 day
Cytochrome P450 2C19 = Cytochrome P450 2C19 (Homo sapiens, UniProt P33261); experiment: Inhibition of CYP2C19 in human liver microsomes using mephenytoin as substrate in presence of NADP by LC-MS/MS analysis; format: ADME, Microsome
[16] = Cmax in male Beagle dog at 2 mg/kg, po measured after 24 hrs by LC-MS/MS analysis; format: ADME, organism-based, Canis lupus familiaris; details: in vivo
Rattus norvegicus [17] = experiment: (§1) Antiarthritic activity in Mycobacterium tuberculosis H37R-induced female Lewis rat model of arthritis assessed as reduction in clinical score at 1 mg/kg, po administered twice daily for 15 days starting from day 13 after adjuvant administration; format: functional, organism-based; details: time 15.0 day
Cytochrome P450 2D6 = Cytochrome P450 2D6 (Homo sapiens, UniProt P10635); experiment: Inhibition of CYP2D6 in human liver microsomes using dextromethorphan as substrate in presence of NADP by LC-MS/MS analysis; format: ADME, Microsome
[18] = Half-life in female Lewis rat at 3 mg/kg, po measured after 24 hrs by LC-MS/MS analysis; format: ADME, organism-based; details: in vivo
[19] = Clearance in male Beagle dog at 1 mg/kg, iv measured after 24 hrs by LC-MS/MS analysis; format: ADME, organism-based, Canis lupus familiaris; details: in vivo
[20] = Cmax in female Lewis rat at 1 mg/kg, po measured after 24 hrs by LC-MS/MS analysis; format: ADME, organism-based; details: in vivo
[21] = Selectivity ratio of IC50 for inhibition of N-terminal GST-tagged wildtype human P38alpha (4 to 152 residues) extracted from Escherichia coli/GST-tagged PRAK (unknown origin) to IC50 for inhibition of N-terminal GST-tagged wildtype human P38alpha (4 to 152 residues) extracted from Escherichia coli/GST-tagged MK2 (unknown origin)
[22] = Inhibition of P38alpha/GST-tagged ATF2 (unknown origin) assessed as reduction in ATF2 phosphorylation incubated for 30 mins in presence of ATP by TR-FRET assay; set-up: species or system Homo sapiens
Rattus norvegicus [23] = experiment: as §1, with “joint swelling by measuring paw volume” for “clinical”, “administration by water displacement method” for “administration”; format: functional, organism-based; details: time 15.0 day
Cytochrome P450 2C9 = Cytochrome P450 2C9 (Homo sapiens, UniProt P11712); experiment: Inhibition of CYP2C9 in human liver microsomes using tolbutamide as substrate in presence of NADP by LC-MS/MS analysis; format: ADME, Microsome
[24] = Selectivity ratio of IC50 for inhibition of P38alpha/GST-tagged ATF2 (unknown origin) to IC50 for inhibition of N-terminal GST-tagged wildtype human P38alpha (4 to 152 residues) extracted from Escherichia coli/GST-tagged MK2 (unknown origin)
[25] = MRT in male Beagle dog at 1 mg/kg, iv measured after 24 hrs by LC-MS/MS analysis; format: ADME, organism-based, Canis lupus familiaris; details: in vivo
[26] = Oral bioavailability in male Beagle dog at 2 mg/kg measured after 24 hrs by LC-MS/MS analysis; format: ADME, organism-based, Canis lupus familiaris; details: in vivo
[27] = Volume of distribution at steady state in male Sprague-Dawley rat at 1 mg/kg, iv measured after 24 hrs by LC-MS/MS analysis; format: ADME, organism-based; details: in vivo, read-out: Vdss
PBMC [28] = experiment: Inhibition of LPS-induced IL-8 production in human PBMC cells at 0.01 to 10000 nM preincubated with compound for 1 hrs followed by LPS addition and measured after 4 hrs; format: functional, cell-based; details: dose 0.01-10000 nM, time 5.0 hrs
Rattus norvegicus [29] = experiment: Antiarthritic activity in Mycobacterium tuberculosis H37R-induced female Lewis rat model of arthritis assessed as inhibition of IL-6 production at 0.3 to 1 mg/kg, po administered twice daily for 15 days starting from day 13 after adjuvant administration; format: functional, organism-based; details: dose 0.3-1 mg/kg, time 15.0 day

Chain of Cytochrome P450 2C9 (P11712 whole entry, the tested form may be a part): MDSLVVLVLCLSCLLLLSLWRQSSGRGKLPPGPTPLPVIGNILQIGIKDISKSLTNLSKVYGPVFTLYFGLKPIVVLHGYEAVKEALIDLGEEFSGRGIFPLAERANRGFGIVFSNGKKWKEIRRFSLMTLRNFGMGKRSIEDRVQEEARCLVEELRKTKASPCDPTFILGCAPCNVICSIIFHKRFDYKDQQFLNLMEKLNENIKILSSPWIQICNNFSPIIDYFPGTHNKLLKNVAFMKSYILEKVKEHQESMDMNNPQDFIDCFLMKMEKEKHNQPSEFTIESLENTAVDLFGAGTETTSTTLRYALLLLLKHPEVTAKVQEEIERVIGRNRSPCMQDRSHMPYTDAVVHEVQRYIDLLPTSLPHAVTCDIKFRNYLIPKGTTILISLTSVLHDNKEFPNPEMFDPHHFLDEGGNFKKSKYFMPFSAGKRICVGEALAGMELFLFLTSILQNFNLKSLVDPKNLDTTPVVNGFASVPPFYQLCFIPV
Chain of Cytochrome P450 2D6 (P10635 whole entry): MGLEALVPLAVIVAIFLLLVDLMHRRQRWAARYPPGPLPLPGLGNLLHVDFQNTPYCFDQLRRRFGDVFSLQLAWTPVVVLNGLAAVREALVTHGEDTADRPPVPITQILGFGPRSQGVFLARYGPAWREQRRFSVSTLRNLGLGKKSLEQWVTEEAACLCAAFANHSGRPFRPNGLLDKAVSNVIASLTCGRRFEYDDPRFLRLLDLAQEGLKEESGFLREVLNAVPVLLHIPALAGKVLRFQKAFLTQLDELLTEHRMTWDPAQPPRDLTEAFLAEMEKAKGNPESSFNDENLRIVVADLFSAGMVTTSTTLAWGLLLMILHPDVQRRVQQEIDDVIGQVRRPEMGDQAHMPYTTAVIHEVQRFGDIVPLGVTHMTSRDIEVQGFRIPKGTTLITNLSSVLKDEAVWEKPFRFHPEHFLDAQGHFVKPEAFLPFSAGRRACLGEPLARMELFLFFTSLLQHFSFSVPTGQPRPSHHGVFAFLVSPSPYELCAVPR
Chain of Cytochrome P450 3A4 (P08684 whole entry): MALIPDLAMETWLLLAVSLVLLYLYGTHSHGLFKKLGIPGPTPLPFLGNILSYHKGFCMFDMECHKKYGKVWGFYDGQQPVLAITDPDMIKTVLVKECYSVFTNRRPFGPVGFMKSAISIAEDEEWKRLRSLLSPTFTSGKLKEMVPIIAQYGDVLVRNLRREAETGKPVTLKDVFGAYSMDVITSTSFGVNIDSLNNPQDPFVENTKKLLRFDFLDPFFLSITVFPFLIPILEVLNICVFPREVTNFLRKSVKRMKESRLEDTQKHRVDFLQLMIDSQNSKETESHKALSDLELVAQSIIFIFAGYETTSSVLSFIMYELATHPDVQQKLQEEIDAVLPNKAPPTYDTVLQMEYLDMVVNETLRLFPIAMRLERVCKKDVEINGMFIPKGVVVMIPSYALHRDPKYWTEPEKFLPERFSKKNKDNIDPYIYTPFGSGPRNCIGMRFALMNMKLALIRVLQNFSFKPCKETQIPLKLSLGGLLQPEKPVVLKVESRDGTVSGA
Chain of Cytochrome P450 2C19 (P33261 whole entry): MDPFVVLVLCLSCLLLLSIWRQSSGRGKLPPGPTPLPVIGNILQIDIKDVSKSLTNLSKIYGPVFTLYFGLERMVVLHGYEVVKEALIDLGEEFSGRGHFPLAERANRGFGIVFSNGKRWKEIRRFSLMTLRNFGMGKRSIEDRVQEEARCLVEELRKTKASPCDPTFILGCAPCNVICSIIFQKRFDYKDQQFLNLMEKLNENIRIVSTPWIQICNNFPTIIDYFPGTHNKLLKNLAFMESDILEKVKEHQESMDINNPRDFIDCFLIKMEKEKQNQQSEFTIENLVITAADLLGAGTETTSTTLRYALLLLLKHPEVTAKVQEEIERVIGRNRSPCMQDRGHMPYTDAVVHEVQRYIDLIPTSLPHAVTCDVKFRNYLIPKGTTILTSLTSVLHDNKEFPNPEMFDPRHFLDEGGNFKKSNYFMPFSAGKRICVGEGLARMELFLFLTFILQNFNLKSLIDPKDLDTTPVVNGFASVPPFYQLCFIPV
Chain of MAP kinase-activated protein kinase 2 (Homo sapiens) (P49137 whole entry, looked up): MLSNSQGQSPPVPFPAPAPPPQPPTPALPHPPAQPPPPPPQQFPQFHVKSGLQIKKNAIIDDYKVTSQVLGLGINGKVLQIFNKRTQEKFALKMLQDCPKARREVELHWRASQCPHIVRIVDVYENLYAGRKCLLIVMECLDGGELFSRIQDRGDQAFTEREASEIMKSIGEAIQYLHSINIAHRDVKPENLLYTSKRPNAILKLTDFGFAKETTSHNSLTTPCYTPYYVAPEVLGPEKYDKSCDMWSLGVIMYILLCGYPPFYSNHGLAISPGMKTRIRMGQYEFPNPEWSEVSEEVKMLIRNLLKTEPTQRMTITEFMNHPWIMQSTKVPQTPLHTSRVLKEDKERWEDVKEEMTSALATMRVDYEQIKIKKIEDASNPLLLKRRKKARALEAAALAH

Cc1cnc(-c2ccnc(C(C)(C)O)n2)c(F)c1-n1c(C)cc(O[C@@H](C)c2ncc(F)cc2F)c(C)c1=O
Vd [1]: 0.8 L/kg
Activity (Rattus norvegicus [2]): Active
Cmax [3]: 916 ng/mL
AUC(0-t) at 24 h [4]: 4340 ng·h/mL
Activity (Rattus norvegicus [5]): Active; Significant Clinical Effect Observed
solubility [6]: 88.3 µg/mL (≈ 168 µM)
IC50 [7]: 5.85 µM
inhibition [8]: Active
half-life [9]: 2.9 h
inhibition (PBMC [10]): Active
IC50 [11]: 0.005 µM
IC50 (Cytochrome P450 3A4): > 40 µM
bioavailability [12]: 121%
Cmax [13]: 1140 ng/mL
IC50 [14]: 0.001 µM
Activity (Rattus norvegicus [15]): Active
IC50 (Cytochrome P450 2C19): > 40 µM
Cmax [16]: 1120 ng/mL
Activity (Rattus norvegicus [17]): Active; Comparable To 3 Mg/Kg Of Compound 1
IC50 (Cytochrome P450 2D6): > 40 µM
half-life [18]: 3.5 h
clearance [19]: 4.5 mL/min/kg
Cmax [20]: 299 ng/mL
Ratio IC50 [21]: 1170
IC50 [22]: 1 µM
Activity (Rattus norvegicus [23]): Active; Significantly Superior Activity Observed Compared To 3 Mg/Kg Of Compound 1
IC50 (Cytochrome P450 2C9): > 40 µM
Ratio IC50 [24]: 263
MRT [25]: 2.9 h
bioavailability [26]: 68%
Vd [27]: 1.2 L/kg
inhibition (PBMC [28]): Active
Activity (Rattus norvegicus [29]): Active
